What was measured:
[1] = tested on: PXB cells (human hepatocytes); assay: CLF efflux (bile transport) assay in PXB cells; assay type: cell-based; settings: n = 3
Procedure: Cholyl-lysyl-fluorescein (CLF) efflux for TAK-994 was assessed using human hepatocytes implanted into PXB-mice. PXB cells were exposed to TAK-994 (0.3, 1, 3, 10, 30, and 100 μM) or vehicle for 2 h and then incubated for an additional 30 min with TAK-994 or vehicle containing 5 μM CLF. CLF efflux and its inhibition by TAK-994 were assessed by fluorescence analysis.
PXB hepatocytes were generated by implanting human hepatocytes into PXB-mice®. These hepatocytes were isolated by collagenase perfusion at PhoenixBio Co Ltd. Freshly isolated hepatocytes were maintained in T-75 flasks and detached using 0.25% trypsin/ethylenediaminetetraacetic acid (EDTA) incubation for 20 minutes (total) using the following procedure. A flash wash was performed with cold trypsin/EDTA, followed by a 5-minute incubation with cold trypsin/EDTA at 37°C, and finally a 15-minute incubation at 37°C with trypsin/EDTA. […]
On Day 8, PXB cells were exposed to TAK-994 (0.3, 1, 3, 10, 30, and 100 μM) or 0.1% DMSO for 2 hours and then incubated for an additional 30 minutes with TAK-994 or […] containing 5 μM CLF. […] The CLF efflux and its inhibition by TAK-994 was quantified using Developer toolbox software. […] The fluorescent intensities of bile canalicular regions were measured to determine the IC50 for TAK-994 CLF efflux inhibition. […]

[2] = tested on: Rat; assay: Rat 26-week oral gavage toxicity study; assay type: in vivo; settings: for Histopathological Liver Findings / ALT / AST / GLDH: rat 26-week; for ALT / AST / GLDH: mean (SD)
Description: TAK-994 performed well in tiered safety screening assays, with wide margins between in vitro IC50 and the predicted efficacious exposures (Table 1). […] Based on the safety profiles observed in these animal studies, TAK-994 progressed into phase I clinical trials.
^aAll dose levels had 15 animals per sex. No statistical difference was observed between the TAK-994 and control groups.

[3] = tested on: human hepatocytes; assay: Covalent binding of [14C]TAK-994 in human hepatocytes and CVB burden; assay type: in vitro ADME; settings: for Daily CVB burden: most conservative values based on internal assay data (Table 1); for CVB burden: fa and fm assumed 1 (Table 3)
Procedure: Covalent binding of TAK-994 was assessed by incubating [^14C]TAK-994 with human hepatocytes. The CVB level was determined by relating the total amount of radioactivity (pmol equivalent) to the protein concentration in each sample. Assessment of TAK-994 inhibition potential for the bile salt efflux pump (BSEP) was assessed by incubating [^3H(G)]taurocholic acid with TAK-994 (0 to 100 μM/l) or cyclosporin A after addition of 10 μl of membrane vesicles expressing BSEP or control membrane vesicles. Scintillation counts were assessed in two 5-min cycles.
[^14C ]TAK-994 (10 μmol/L, supplied by Takeda Pharmaceutical Company Limited, Japan) was incubated with human hepatocytes (LIVERPOOL® 10-donor mixed gender, pooled, cryopreserved human hepatocytes [Lot No. ZOL, BioIVT]) as suspension culture in 24-well plates at 37°C under 5% CO2, humidified, for 0 or 2 hours. Seeding density of the cells was 3.0 × 10^5 viable cells/500 μL/well. A total of 3 replicates were assessed.
The covalent-binding (CVB) level was determined by relating the total amount of radioactivity (pmol equivalent) to the protein concentration in each sample. To obtain the net covalent-binding (CVBnet), the average result of the “back-added” samples (CVBback) was subtracted from the average result of the incubated samples (CVBinc). For the determination of [^14C ]TAK-994 turnover in the incubation, part of the samples were analyzed by high-performance liquid chromatography with an online flow scintillation analyzer.
Turnover = 1 − [percentage of TAK-994 relative to the total radioactivity at 2 hours] [percentage of TAK-994 relative to the total radioactivity at 0 hour]
fcvb = CVB (pmol/mg protein) × [mean protein concentration (mg/well)] turnover × [substrate concentration (pmol/well)]
CVB burden (mg) = D × fa × fm × fcvb
D was set to 60, 180, 240, and 360 mg. Both fa and fm were set to a value of 1 (Thompson et al. 2012).

[4] = tested on: patients with narcolepsy; set-up: method as in Dauvilliers et al. 2023; settings: 30, 90 or 180 mg twice daily, 8 wk; ref Dauvilliers et al. 2023; cited from earlier work

CC(C)(O)C(=O)N1CC[C@H](NS(C)(=O)=O)[C@@H]1Cc1cccc(-c2cc(F)cc(F)c2)c1F.CC(C)(O)C(=O)N1CC[C@H](NS(C)(=O)=O)[C@@H]1Cc1cccc(-c2cc(F)cc(F)c2)c1F.O.O.O [TAK-994]
IC50 [1]: 30 µM
Histopathological Liver Findings ([2]; female, 50 mg/kg): No adverse findings
ALT ([2]; female, 50 mg/kg): 35 (12) IU/L
AST ([2]; female, 50 mg/kg): 64 (38) IU/L
GLDH ([2]; female, 50 mg/kg): 41 (78) IU/L
Histopathological Liver Findings ([2]; female, 150 mg/kg): No adverse findings
ALT ([2]; female, 150 mg/kg): 37 (8) IU/L
AST ([2]; female, 150 mg/kg): 53 (13) IU/L
GLDH ([2]; female, 150 mg/kg): 12 (14) IU/L
Histopathological Liver Findings ([2]; female, 1000 mg/kg): No adverse findings
ALT ([2]; female, 1000 mg/kg): 44 (14) IU/L
AST ([2]; female, 1000 mg/kg): 51 (6) IU/L
GLDH ([2]; female, 1000 mg/kg): 6 (4) IU/L
Histopathological Liver Findings ([2]; male, 50 mg/kg): No adverse findings
ALT ([2]; male, 50 mg/kg): 29 (6) IU/L
AST ([2]; male, 50 mg/kg): 53 (8) IU/L
GLDH ([2]; male, 50 mg/kg): 12 (8) IU/L
Histopathological Liver Findings ([2]; male, 150 mg/kg): No adverse findings
ALT ([2]; male, 150 mg/kg): 38 (31) IU/L
AST ([2]; male, 150 mg/kg): 53 (11) IU/L
GLDH ([2]; male, 150 mg/kg): 12 (7) IU/L
Histopathological Liver Findings ([2]; male, 1000 mg/kg): No adverse findings
ALT ([2]; male, 1000 mg/kg): 31 (7) IU/L
AST ([2]; male, 1000 mg/kg): 50 (11) IU/L
GLDH ([2]; male, 1000 mg/kg): 7 (4) IU/L
adverse liver findings, chronic dose toxicity study ([2]; rats, 6-mo, up to the high dose tested of 1,000 mg/kg): no adverse liver findings
Daily CVB burden ([3]; 90 mg BID): 25.1 mg
Daily CVB burden ([3]; 180 mg BID): 50.2 mg
CVB level ([3]; 2-h incubation of human hepatocytes with TAK-994 at 10 μM): 389.2 pmol equivalent/mg protein
CVB burden ([3]; daily dose 60 mg (30 BID)): 2.94 mg
CVB burden ([3]; daily dose 180 mg (90 BID)): 8.82 mg
CVB burden ([3]; daily dose 240 mg (120 BID)): 11.8 mg
CVB burden ([3]; daily dose 360 mg (180 BID)): 17.6 mg
f CVB (fraction of metabolism leading to covalent binding) ([3]; human hepatocytes, 10 μM, 2 h): 0.0490
mean wakefulness time in people with narcolepsy [4]: effectively increased mean wakefulness time
